Experimental data: PubChem BioAssay (NCI)
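48-hour exposure; five concentrations; linearly interpolated endpoints. GI50 = concentration required for 50% inhibition of growth. Definition used: TGI = concentration required for complete inhibition of growth.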

Tests used:
Experiment in all cases: NCI anticancer screen, dose series, 48 h
SF-295 CNS = system: SF-295 CNS
SW-620 colon = system: SW-620 colon
A549 NSCLC = system: A549 NSCLC
HOP-92 NSCLC = system: HOP-92 NSCLC
HL-60(TB) leukemia = system: HL-60(TB) leukemia
OVCAR-3 ovarian = system: OVCAR-3 ovarian
LOX IMVI melanoma = system: LOX IMVI melanoma
RPMI-8226 leukemia = system: RPMI-8226 leukemia
HS 578T breast = system: HS 578T breast
T-47D breast = system: T-47D breast

| Compound | TGI (SF-295 CNS) [µM] | TGI (SW-620 colon) [µM] | TGI (A549 NSCLC) [µM] | TGI (HOP-92 NSCLC) [µM] | TGI (HL-60(TB) leukemia) [µM] | TGI (OVCAR-3 ovarian) [µM] | TGI (LOX IMVI melanoma) [µM] | TGI (RPMI-8226 leukemia) [µM] | GI50 (HS 578T breast) [µM] | TGI (HS 578T breast) [µM] | GI50 (SF-295 CNS) [µM] | GI50 (SW-620 colon) [µM] | GI50 (A549 NSCLC) [µM] | GI50 (HOP-92 NSCLC) [µM] | GI50 (HL-60(TB) leukemia) [µM] | GI50 (OVCAR-3 ovarian) [µM] | GI50 (LOX IMVI melanoma) [µM] | GI50 (RPMI-8226 leukemia) [µM] | GI50 (T-47D breast) [µM] | TGI (T-47D breast) [µM] |
| --- | --- | --- | --- | --- | --- | --- | --- | --- | --- | --- | --- | --- | --- | --- | --- | --- | --- | --- | --- | --- |
| S=c1nc(COc2ccc(Cl)cc2Cl)[nH][nH]1 | > 100 | > 100 | > 100 | > 100 | 88.8 | > 100 | > 100 | > 100 | – | – | – | – | – | – | – | – | – | – | – | – |
| N#CC1CCCCOCCOCCOCCOCCOCCCCCC1=O (centres undefined) | > 100 | > 100 | > 100 | – | > 100 | > 100 | > 100 | > 100 | – | – | – | – | – | – | – | – | – | – | – | – |
| O=[N+]([O-])c1ccc(Cl)c(C2CC(c3cccc4ccccc34)=Nc3ccccc3S2)c1 (centres undefined) | > 94.1 | > 66.7 | > 100 | 49.8 | 26.2 | 51.2 | 59.2 | > 47.5 | – | – | – | – | – | – | – | – | – | – | – | – |
| Cc1nnc2c3nnc(C)n3c3ccccc3n12 | > 100 | > 100 | > 100 | > 100 | – | > 100 | > 100 | > 100 | – | – | – | – | – | – | – | – | – | – | – | – |
| Cc1cc(S(=O)(=O)/N=C/N(C)C)c(SC(=O)c2ccc(Cl)cc2)cc1Cl | > 100 | 72.3 | 85.2 | > 100 | > 100 | 91.1 | 35.2 | 80.6 | 20.7 | 65 | 50.9 | 27.6 | 34.1 | 28.9 | 42.5 | 33.3 | 19.1 | 25.4 | – | – |
| COc1ccc2c(c1)CC[C@@H]1[C@@H]2CC[C@]2(C)[C@@H](NC(=O)/C=C/c3ccc(O)c(O)c3)CC[C@@H]12 | 27.1 | 25 | 17.6 | 11.6 | – | 22.7 | 13.7 | 9.79 | 18.5 | 58.4 | 12.8 | 5.55 | 4.58 | 2.49 | – | 10.6 | 3.15 | 1.08 | 17.3 | 43 |
| O=c1cc(-c2c[nH]c3ccccc23)[nH]c2cc3c(cc12)OCO3 | > 100 | > 100 | > 100 | – | > 100 | > 100 | > 100 | > 100 | – | – | – | – | – | – | – | – | – | – | – | – |
| COc1cccc(CSCC(=O)O)c1 | > 100 | > 100 | > 100 | > 100 | – | > 100 | > 100 | > 100 | – | > 100 | – | – | – | – | – | – | – | – | – | > 100 |
| CS(=O)(=O)NNS(=O)(=O)c1ccccc1 | > 100 | > 100 | > 100 | – | > 100 | – | > 100 | > 100 | – | – | – | – | – | – | – | – | – | – | – | – |
| CN(C)c1nnnn1-c1c(N)n(C)c(=O)n(C)c1=O | > 100 | > 100 | > 100 | > 100 | > 100 | > 100 | > 100 | > 100 | – | – | – | – | – | – | – | – | – | – | – | – |
| Cc1ccc(NC(=O)C2C(=O)N(c3ccc(C)c(C)c3)C(=O)/C2=N\NC(N)=O)cc1C (centres undefined) | > 100 | > 100 | > 100 | > 100 | > 100 | > 100 | > 100 | > 100 | – | – | – | – | – | – | – | – | – | – | – | – |
| NC(=O)c1ccccc1NC(=O)C(=O)Cc1nc2ccccc2[nH]c1=O | > 100 | > 100 | > 100 | > 100 | > 100 | > 100 | > 100 | > 100 | – | – | – | – | – | – | – | – | – | – | – | – |
| Cc1cc(-c2ccccc2)nc(Nc2nc3ccccc3o2)n1 | > 100 | > 100 | > 100 | > 100 | > 100 | > 100 | > 100 | > 100 | – | – | – | – | – | – | – | – | – | – | – | – |
| Clc1ccc(-c2csc(Nc3cccc(-c4csc(-c5ccccc5)n4)c3)n2)cc1 | > 50 | 28.8 | 43.4 | > 50 | 40.9 | 32.4 | 9.79 | > 50 | 20.6 | > 50 | 15.9 | 12.2 | 15.2 | 12.5 | 17.2 | 11.4 | 3.53 | 19.2 | – | – |
| S=C(Nc1ccc(N=Nc2ccccc2)cc1)SCc1ccccc1 | 34.4 | 44.5 | 35.8 | 30.4 | – | 29.4 | 38.5 | 33.3 | – | 61.5 | – | – | – | – | – | – | – | – | – | > 100 |
| CC(=O)OC1=CC2=CC[C@H]3[C@@H]4CCC(=O)[C@@]4(C)CC(=O)[C@]3(S)[C@@]2(C)CC1 | > 100 | > 100 | > 100 | 62.8 | – | 69.3 | 36 | 53.5 | – | 74.6 | – | – | – | – | – | – | – | – | – | > 100 |
| COc1ccc(S(=O)(=O)NC2=NCCN2C(=S)SN2CCn3c2nsc3=S)cc1 | 53.6 | 27.8 | 79.4 | 35.4 | – | 37.4 | 33.1 | 63.1 | 20.8 | 54.2 | 20.8 | 14.1 | 23.4 | 16.9 | – | 15.5 | 15.5 | 14 | 18.3 | 49.1 |
| COc1ccc2c(C3(c4cn(C)c5cc(OC)ccc45)C(=O)Nc4ccc(Cl)cc43)cn(C)c2c1 | > 100 | > 100 | – | 37.4 | – | 18.4 | 21.9 | > 100 | 3.5 | 87.9 | 5.16 | 4.67 | – | 3.02 | – | 4.31 | 3.4 | 3.94 | 3.89 | > 100 |
| COC(=O)C1OC2(CCCC3CC32)O[C@H]1C(=O)OC (some centres undefined) | > 100 | > 100 | > 100 | > 100 | > 100 | > 100 | > 100 | > 100 | – | > 100 | – | – | – | – | – | – | – | – | – | – |
| CC(=O)c1c(CN(C)c2ccccc2)n([O-])c2ccccc2[n+]1=O | – | > 100 | > 100 | – | – | – | > 100 | 40.9 | 50.7 | > 100 | – | 21 | 47.1 | – | – | – | 38.2 | 13.2 | – | – |
